A short description of assay [1]: Inhibition of c-MET in human DU145 cells by scattering assay.
Assay [2] can be described thus: Inhibition of c-MET in human A549 cells by wound healing assay.

Molecules are shown by their SMILES.

Turning to `Cn1cnc(-c2cc3nccc(Oc4ccc(NC(CC(=O)Nc5ccc(F)cc5)C(F)(F)F)cc4)c3s2)c1` (stereo unspecified) [4,4,4-trifluoro-N-(4-fluorophenyl)-3-(4-(2-(1-methyl-1H-imidazol-4-yl)thieno[3,2-b]pyridin-7-yloxy)phenylamino)butanamide], the IC50 in assay [1] and in assay [2] was 2000 nM in each case.
Regarding `COc1ccccc1NC(=O)CC(Nc1ccc(Oc2ccnc3cc(-c4cn(C)cn4)sc23)c(F)c1)C(F)(F)F` (stereo unspecified) [4,4,4-trifluoro-3-(3-fluoro-4-(2-(1-methyl-1H-imidazol-4-yl)thieno[3,2-b]pyridin-7-yloxy)phenylamino)-N-(2-methoxyphenyl)butanamide], the results for the IC50 in assay [1] and in assay [2] were 10000 nM and 2000 nM, respectively.
In the case of `Cn1cnc(-c2cc3nccc(Oc4ccc(NC(CC(=O)Nc5ccc(F)cc5)C(F)(F)F)cc4F)c3s2)c1` (stereo unspecified) [4,4,4-trifluoro-3-(3-fluoro-4-(2-(1-methyl-1H-imidazol-4-yl)thieno[3,2-b]pyridin-7-yloxy)phenylamino)-N-(4-fluorophenyl)butanamide], the 50% inhibitory concentration (IC50) in assay [1] and in assay [2] was 400 nM in each case.

Values taken from BindingDB's records for doi:10.1016/j.bmcl.2009.12.099 (Methylgene, 2010).
